Source: patent US9610279B2, “Method for induction of a heat shock protein, anti-stress or regulation of an autonomic nerve” (AMINO UP CHEMICAL CO., LTD., priority 2011, dated 2017)

System: HSP70
Test: HSP70 protein expression inducing activity in HeLa cells (ELISA)
Type: cell-based, human
Conditions: final concentration 1 mg/mL, 24 hours
Procedure: The HSP70 inducing activity of the samples 1, 3, and 4 which were the same ones as used in Example 4 was evaluated by measuring an HSP70 protein expression level. In the same manner as described in Example 4, HeLa cells that had been suspended in DMEM (added with 10% FBS) were seeded in a 12-well plate (100,000 cells/mL/well). […] A part of the cells were then scraped off with a cell scraper, collected into a 1.5 mL sample tube, and subjected to HSP70 protein quantification and total protein quantification. The quantification of HSP70 protein was carried out using HSP70 ELISA kit (product name) (manufactured by Enzo); and the quantification of total protein was carried out using Micro BCA Protein Assay Reagent kit (product name) (manufactured by PIERCE Biotechnology). With regard to the remaining cells, an effect on cell proliferation was evaluated by 3-(4,5-dimethyl […])-2,5-diphenyltetrazalium bromide (MTT) method. […]

For `O=Cc1ccc(CO)o1` [sample 1, 5-Hydroxymethyl-2-furaldehyde], which “increased HSP70 protein expression as compared with the control” value is on record?
Its value is “about 1.3 fold”.
